Assays:
HL-60(TB) = assay: NCI screening panel (SRB); type: cell-based; conditions: Homo sapiens, HL-60(TB) (Leukemia), 48 h; for CC50: read-out: LC50 (the source's name)
MOLT-4 = assay: NCI screening panel (SRB); type: cell-based; conditions: Homo sapiens, MOLT-4 (Leukemia), 48 h; for CC50: read-out: LC50 (the source's name)
A549/ATCC = assay: NCI screening panel (SRB); type: cell-based; conditions: Homo sapiens, A549/ATCC (NSCLC), 48 h; for CC50: read-out: LC50 (the source's name)
EKVX = assay: NCI screening panel (SRB); type: cell-based; conditions: Homo sapiens, EKVX (NSCLC), 48 h; for CC50: read-out: LC50 (the source's name)
NCI-H23 = assay: NCI screening panel (SRB); type: cell-based; conditions: Homo sapiens, NCI-H23 (NSCLC), 48 h; for CC50: read-out: LC50 (the source's name)
HT29 = assay: NCI screening panel (SRB); type: cell-based; conditions: Homo sapiens, HT-29, HT29 (Colon), 48 h; for CC50: read-out: LC50 (the source's name)
SF-539 = assay: NCI screening panel (SRB); type: cell-based; conditions: Homo sapiens, SF-539 (CNS), 48 h; for CC50: read-out: LC50 (the source's name)
U251 = assay: NCI screening panel (SRB); type: cell-based; conditions: Homo sapiens, U-251, U251 (CNS), 48 h; for CC50: read-out: LC50 (the source's name)
MALME3-M = assay: NCI screening panel (SRB); type: cell-based; conditions: Homo sapiens, Malme-3M, MALME3-M (Melanoma), 48 h; for CC50: read-out: LC50 (the source's name)
UACC-257 = assay: NCI screening panel (SRB); type: cell-based; conditions: Homo sapiens, UACC-257 (Melanoma), 48 h; for CC50: read-out: LC50 (the source's name)
OVCAR-4 = assay: NCI screening panel (SRB); type: cell-based; conditions: Homo sapiens, OVCAR-4 (Ovarian), 48 h; for CC50: read-out: LC50 (the source's name)
DU-145 = assay: NCI screening panel (SRB); type: cell-based; conditions: Homo sapiens, DU-145 (Prostate), 48 h; for CC50: read-out: LC50 (the source's name)
NCI-H322M = assay: cells; conditions: Homo sapiens, 48 h; for CC50: read-out: LC50
EGFR (L858R, T790M) = EGFR (L858R, T790M) (Homo sapiens, UniProt P00533, L858R/T790M); assay: Kinase assays, selectivity panel (qPCR); conditions: read-out: % Control @ 300 nM
[1] = Chemical stability in simulated intestinal fluid; type: physicochemical; conditions: 37° C.
Experimental: For SIF: Dissolve 6.8 g of KH2PO4 into about 500 mL ultrapure water and adjust the solution to a pH 6.8 with 0.1 M NaOH. Dissolve 10 g of trypsin into ultrapure water. Then the two solutions are mixed well and diluted with ultrapure water to 1000 mL.
The working solutions of test compound and control compound chlorambucil are prepared in DMSO at the concentration of 500 μM.
Place 2 μL of working solution of each sample in order into their proper 96-well rack. Add 198 μL of pre-incubated PBS pH 7.4 or simulated intestinal fluid into each vial of the cap-less Sample plate to achieve a final concentration of […]. The assay is performed in duplicate. Seal using a molded PTFE/Silicone plug. Then transfer the Sample plate to the Eppendorf Thermomixer Comfort plate shaker and shake at 37° C. at 1100 RPM. Take one of the glass vials at designated time points including 0, 30, 60, 120 and 240 min. For each time point, the initiation of the reaction is staggered so all time points are terminated with 1000 μL of cold quench solution (acetonitrile containing internal standards (IS, 200 nM Labetalol, 100 nM Alprazolam and 2 μM Ketoprofen) at the same time. Vortex for 1 minute. Centrifuge the samples in plate at 3,220 g for 5 minutes at 4° C. Transfer 100 μL of the supernatant to a new plate. The supernatant may be diluted with 100 μL or 200 μL water according to the LC/MS signal response and peak shape. Mix well and analyze samples using LC/MS/MS.

Plasma stability = type: in vitro ADME
Experimental: Thaw the frozen plasma immediately in a 37° C. water bath. Centrifuge plasma at 3,220 g for 10 minutes at room temperature to remove clots and collect supernatant into a fresh tube. Check and record the pH of the plasma. (Note: a. Only use plasma that has been thawed no more than twice since arrival. b. Only use plasma within the range of pH 7 to pH 8.)
The working solutions of test compounds and control compound are prepared in 50% water/50% acetonitrile and DMSO at the concentration of 100 μM, respectively. Propantheline is used as positive control for human and mouse plasma stability assay and mevinolin is used as the positive control for dog and rat plasma stability assay.
Add 5 μL of 100 μM working solution to 495 μL of pre-incubated human, monkey, dog, rat or mouse plasma to reach a final concentration of 1 μM. The final concentration of organic solvents is 0.5%. The assay is performed in duplicate. Incubate the reaction samples at 37° C. water bath with shaking at approximately 60 rpm. Take aliquots of 50 μL from the reaction samples at 0, 15, 30, 45, 60 and 120 minutes. Stop the reaction by adding 300 μL of room temperature quench solution (Acetonitrile containing internal standards (IS, 200 nM Labetalol, 100 nM Alprazolam and 2 μM Ketoprofen)). Vortex for 5 minutes. Centrifuge samples in plate at 3,220 g for 30 minutes at room temperature to precipitate protein. Transfer 100 μL of the supernatant to a new plate. The supernatant may be diluted with 100 μL or 200 μL water according to the LC/MS signal response and peak shape. Mix well and analyze samples using LC/MS/MS.

Sequence of EGFR (L858R, T790M) (P00533 25-1210 T790M/L858R): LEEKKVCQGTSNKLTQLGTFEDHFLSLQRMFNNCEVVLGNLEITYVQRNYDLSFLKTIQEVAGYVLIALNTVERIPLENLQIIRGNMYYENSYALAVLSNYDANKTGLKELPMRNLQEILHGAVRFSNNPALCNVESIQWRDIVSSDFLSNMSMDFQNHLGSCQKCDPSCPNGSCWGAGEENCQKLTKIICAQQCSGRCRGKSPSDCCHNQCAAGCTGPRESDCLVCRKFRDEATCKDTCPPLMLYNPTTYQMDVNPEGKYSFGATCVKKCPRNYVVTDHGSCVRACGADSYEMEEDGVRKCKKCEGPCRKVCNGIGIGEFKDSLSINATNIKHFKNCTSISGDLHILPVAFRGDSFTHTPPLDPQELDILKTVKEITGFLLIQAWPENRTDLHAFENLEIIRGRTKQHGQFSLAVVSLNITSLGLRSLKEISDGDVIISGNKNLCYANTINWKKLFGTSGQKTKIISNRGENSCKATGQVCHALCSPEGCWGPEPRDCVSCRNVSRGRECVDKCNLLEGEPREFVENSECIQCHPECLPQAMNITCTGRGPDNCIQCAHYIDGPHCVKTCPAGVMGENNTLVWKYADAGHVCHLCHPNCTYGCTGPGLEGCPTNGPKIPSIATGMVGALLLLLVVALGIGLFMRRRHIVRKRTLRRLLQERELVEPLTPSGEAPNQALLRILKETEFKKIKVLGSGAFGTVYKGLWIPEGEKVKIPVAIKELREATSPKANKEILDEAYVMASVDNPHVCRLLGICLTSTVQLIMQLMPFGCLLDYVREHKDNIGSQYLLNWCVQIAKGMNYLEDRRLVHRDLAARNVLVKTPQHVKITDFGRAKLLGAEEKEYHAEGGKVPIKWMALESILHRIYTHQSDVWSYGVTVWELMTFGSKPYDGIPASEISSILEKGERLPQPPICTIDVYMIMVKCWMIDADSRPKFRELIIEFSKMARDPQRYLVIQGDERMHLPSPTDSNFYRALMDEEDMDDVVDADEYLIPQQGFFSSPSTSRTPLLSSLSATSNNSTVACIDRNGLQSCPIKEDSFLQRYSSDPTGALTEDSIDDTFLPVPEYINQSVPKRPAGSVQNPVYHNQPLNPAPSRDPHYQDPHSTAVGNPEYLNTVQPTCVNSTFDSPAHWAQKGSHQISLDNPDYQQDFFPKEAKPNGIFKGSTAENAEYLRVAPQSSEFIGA

Structure (SMILES)	GI50 (HL-60(TB)) [µM]	CC50 (HL-60(TB)) [µM]	GI50 (MOLT-4) [µM]	CC50 (MOLT-4) [µM]	GI50 (A549/ATCC) [µM]	CC50 (A549/ATCC) [µM]	GI50 (EKVX) [µM]	CC50 (EKVX) [µM]	GI50 (NCI-H23) [µM]	CC50 (NCI-H23) [µM]	GI50 (HT29) [µM]	CC50 (HT29) [µM]	GI50 (SF-539) [µM]	CC50 (SF-539) [µM]	GI50 (U251) [µM]	CC50 (U251) [µM]	GI50 (MALME3-M) [µM]	CC50 (MALME3-M) [µM]	GI50 (UACC-257) [µM]	CC50 (UACC-257) [µM]	further results
CN(C)C/C=C/C(=O)Nc1cc2c(Nc3ccc(F)c(Cl)c3F)ncnc2cc1OCCOC(F)F.O=C(O)/C=C\C(=O)O.O=C(O)/C=C\C(=O)O [Example I-9-MA, (E)-N-[4-(3-chloro-2,4-difluoro-anilino)-7-[2-(difluoromethoxy)ethoxy]quinazolin-6-yl]-4-(dimethylamino)but-2-enamide di-maleic acid salt]	1.73	32.2	0.849	47.5	0.77	36.3	< 0.01	19.6	1.38	15.4	0.383	62.6	1.06	9.52	2.17	29.6	1.42	6.97	2.18	34	GI50 (OVCAR-4): 0.999 µM; CC50 (OVCAR-4): 32.4 µM; GI50 (DU-145): 0.14 µM; CC50 (DU-145): 20.8 µM; GI50 (NCI-H322M): < 0.01 µM; CC50 (NCI-H322M): 28.2 µM; remaining activity at 0.3 µM (EGFR (L858R, T790M)): 3.5%
CN(C)C/C=C/C(=O)Nc1cc2c(Nc3ccc(F)c(Cl)c3)ncnc2cc1O[C@H]1CCOC1 [Afatinib, reference compound]																					Remaining Percentage (%) in Simulated Intestinal Fluid ([1]; 120 min): 104.51%; Remaining Percentage (%) in Simulated Intestinal Fluid ([1]; 240 min): 104.31%; Dog Remaining Percentage (%) (Plasma stability; 60 min): 111.61%; Human Remaining Percentage (%) (Plasma stability; 60 min): 94.78%; Monkey Remaining Percentage (%) (Plasma stability; 60 min): 102.98%; Mouse Remaining Percentage (%) (Plasma stability; 60 min): 101.81%; Rat Remaining Percentage (%) (Plasma stability; 60 min): 101.43%; Dog Remaining Percentage (%) (Plasma stability; 120 min): 102.15%; Human Remaining Percentage (%) (Plasma stability; 120 min): 98.62%; Monkey Remaining Percentage (%) (Plasma stability; 120 min): 97.24%; Mouse Remaining Percentage (%) (Plasma stability; 120 min): 106.59%; Rat Remaining Percentage (%) (Plasma stability; 120 min): 95.31%
O=C(/C=C/CN1CCCCC1)Nc1cc2c(Nc3ccc(F)c(Cl)c3F)ncnc2cc1OCCOC(F)F.O=C(O)/C=C\C(=O)O.O=C(O)/C=C\C(=O)O [Example I-10-MA, (E)-N-[4-(3-chloro-2,4-difluoro-anilino)-7-[2-(difluoromethoxy)ethoxy]quinazolin-6-yl]-4-(1-piperidyl)but-2-enamide di-maleic acid salt]	1.75	30.8	1.12	98.4	1	36.6	0.0347	23.9	2.09	> 100	1.14	51.4	1.5	14.3	2.17	40.7	1.45	7.44	1.74	24.1	GI50 (OVCAR-4): 1.31 µM; CC50 (OVCAR-4): 59.9 µM; GI50 (DU-145): 0.266 µM; CC50 (DU-145): 37.8 µM; GI50 (NCI-H322M): < 0.01 µM; CC50 (NCI-H322M): 30.3 µM; remaining activity at 0.3 µM (EGFR (L858R, T790M)): 2.4%
CN(C)C/C=C/C(=O)Nc1cc2c(Nc3cccc(Cl)c3F)ncnc2cc1OCCOC(F)F.O=C(O)/C=C\C(=O)O [Example I-5-MA, (E)-N-[4-(3-chloro-2-fluoro-anilino)-7-[2-(difluoromethoxy)ethoxy]quinazolin-6-yl]-4-(dimethylamino)but-2-enamide dimaleic acid salt]																					Remaining Percentage (%) in Simulated Intestinal Fluid ([1]; 120 min): 97.51%; Remaining Percentage (%) in Simulated Intestinal Fluid ([1]; 240 min): 91.51%; Dog Remaining Percentage (%) (Plasma stability; 60 min): 104.57%; Human Remaining Percentage (%) (Plasma stability; 60 min): 101.95%; Monkey Remaining Percentage (%) (Plasma stability; 60 min): 85.79%; Mouse Remaining Percentage (%) (Plasma stability; 60 min): 95.45%; Rat Remaining Percentage (%) (Plasma stability; 60 min): 99.28%; Dog Remaining Percentage (%) (Plasma stability; 120 min): 102.13%; Human Remaining Percentage (%) (Plasma stability; 120 min): 95.45%; Monkey Remaining Percentage (%) (Plasma stability; 120 min): 83.32%; Mouse Remaining Percentage (%) (Plasma stability; 120 min): 105.25%; Rat Remaining Percentage (%) (Plasma stability; 120 min): 95.14%

From patent US20190016689A1, “NOVEL FLUORINATED QUINAZOLINE DERIVATIVES AS EGFR INHIBITORS” (TRILLIUM THERAPEUTICS INC., priority 2016, published 2019)
